{"source": "paper PMC6828666", "about": "“Discovery of holoenzyme-disrupting chemicals as substrate-selective CK2 inhibitors” (Scientific Reports, 2019)", "key": {"CK2α2β2 holoenzyme": {"target": "T1, CK2α2β2 holoenzyme (Homo sapiens, UniProt P68400)", "T1 construct": "made in house; host or cells: Escherichia coli (CK2α)", "T1 sequence (P68400 whole entry)": "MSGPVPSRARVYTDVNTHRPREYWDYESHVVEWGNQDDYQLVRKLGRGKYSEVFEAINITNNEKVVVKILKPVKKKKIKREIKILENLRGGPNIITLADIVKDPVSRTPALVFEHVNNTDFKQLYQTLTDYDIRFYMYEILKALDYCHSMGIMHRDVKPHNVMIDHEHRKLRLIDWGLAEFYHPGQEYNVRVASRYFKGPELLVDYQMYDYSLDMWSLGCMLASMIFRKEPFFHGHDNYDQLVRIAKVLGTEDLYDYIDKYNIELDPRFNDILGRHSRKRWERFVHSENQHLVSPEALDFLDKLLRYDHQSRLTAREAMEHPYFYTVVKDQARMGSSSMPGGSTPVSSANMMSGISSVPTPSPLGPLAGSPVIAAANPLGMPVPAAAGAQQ", "experiment": "CK2 kinase assay with CK2β-dependent peptide substrate (eIF2-derived)", "assay_type": "biochemical", "conditions": "for IC50: phosphorylation of CK2β-dependent peptide substrate", "protocol": "First, all the compounds were dissolved at 200 μM in 50 mM Tris-HCl pH 7.5 buffer containing 0.1 M NaCl and 5% DMSO; the compounds that precipitated under these conditions were discarded. The 32 remaining compounds were diluted at 200 μM in the kinase buffer and centrifuged at 14,000 g. The supernatant was then assayed for ability to inhibit phosphorylation of a CK2β-dependent peptide substrate. For this, a 22-residue long N-terminal fragment of the eukaryotic translation initiation factor 2 (eIF2), known to be exclusively phosphorylated by the CK2α2β2 holoenzyme[4] was used as a substrate. […]\nFinal concentration of ATP was 100 μM. Assays were performed under linear kinetic conditions for 5 min at room temperature before termination by the addition of 60 μL of 4% TCA. ^32P incorporation in peptide substrate was determined as previously described. […]"}, "[1]": {"system": "Akt phosphorylation at Ser129 in MCF10A cells", "experiment": "Western blot of Akt Ser129 phosphorylation", "assay_type": "cell-based, human", "conditions": "48 h", "protocol": "Figure 5 Cellular effects of compounds 3, 4 and 6. MCF10A cells were incubated for 24 h with either DMSO or 30 μM TAT or 30 μM TAT-Pc or 25 μM 6 (a) or with increasing concentrations of 6 (b) or 3 (c). MCF10A cells were incubated for 48 h with either DMSO or with increasing concentrations of 3 or 6 (d). Cells were then lysed and analyzed by western blot with the indicated antibodies. Blot images are representative of at least three independent experiments. Uncropped blots are shown in Supplementary Fig. S16. (e) MDA-MB231 cells were treated with 40 μM 6 (⚬), 4 (▴) or 3 (X). (f) MDA-MB231 cells were treated for 30 h with increasing concentrations of 6 (⚬) or 4 (▴). Insert: cells were treated for 30 h with 80 μM 6 or 10 μM CX-4945. […] Cell death was automatically quantified from images captured every 3 h for the duration of the experiments using an Essen IncuCyte Zoom live-cell microscopy incubator. […]\n(§1) Cells were lysed in RIPA buffer (10 mM Tris-HCl pH 7.4, 150 mM NaCl, 1% Triton X-100, 0.1% SDS, 0.5% DOC and 1 mM EDTA) containing both protease- and phosphatase-inhibitor cocktails (Sigma-Aldrich; P8340, P2850, P5726). Cell homogenates were quantified using BCA protein Assay kit (Thermo Scientific). […] Luminata Forte Western HRP substrate (Millipore) was added and membranes were read with Fusion Fx7 (PerkinElmer). […] Images were analyzed and band intensities were quantified using ImageJ software. […]"}, "MDA-MB231 cells [2]": {"system": "MDA-MB231 cells", "experiment": "Cell death by propidium iodide live-cell imaging (IncuCyte)", "assay_type": "cell-based", "conditions": "for effect of pan-caspase inhibitor Z-VAD on compound-induced cell death: 80 μM compound, 20 μM Z-VAD", "protocol": "(§2) Figure 5 Cellular effects of compounds 3, 4 and 6. MCF10A cells were incubated for 24 h with either DMSO or 30 μM TAT or 30 μM TAT-Pc or 25 μM 6 (a) or with increasing concentrations of 6 (b) or 3 (c). MCF10A cells were incubated for 48 h with either DMSO or with increasing concentrations of 3 or 6 (d). Cells were then lysed and analyzed by western blot with the indicated antibodies. Blot images are representative of at least three independent experiments. Uncropped blots are shown in Supplementary Fig. S16. (e) MDA-MB231 cells were treated with 40 μM 6 (⚬), 4 (▴) or 3 (X). (f) MDA-MB231 cells were treated for 30 h with increasing concentrations of 6 (⚬) or 4 (▴). Insert: cells were treated for 30 h with 80 μM 6 or 10 μM CX-4945. (g) Cells were incubated with 80 μM 6 or 4 in the absence or presence of 20 μM Z-VAD. […] (h) MDA-MB231 cells (⚬) or MCF10A cells (⦁) were incubated for 24 h with 80 μM 6. Cell death was automatically quantified from images captured every 3 h for the duration of the experiments using an Essen IncuCyte Zoom live-cell microscopy incubator. Error bars represent the SEM of two biological replicates derived from technical triplicates.\nCells grown on 96-well flat-bottomed plates (Corning Falcon) were tracked using an Essen IncuCyte Zoom live-cell microscopy instrument, an automated live cell imager with high-throughput capabilities and built-in data analysis. Experiments were conducted at 37 °C and 5% CO2. The software incorporated into the IncuCyte Zoom was used to analyze the images.\nCells plated at equal density (2 × 10^4 cells/well) were treated with the indicated inhibitors in cell culture medium containing 0.5 μg/ml Propidium iodide (Sigma-Aldrich). Images of PI-stained red fluorescent cells were captured every 3 h for the duration of the experiment. For apoptosis detection, 50 μL/mL fluorochrome-conjugated Annexin V (Molecular Probes) was added to the medium together with Propidium iodide and apoptotic cell numbers were calculated."}, "MDA-MB231 cells [3]": {"system": "MDA-MB231 cells", "experiment": "Scratch wound cell migration assay", "assay_type": "cell-based", "conditions": "MDA-MB231, 40 μM", "protocol": "Cells seeded at equal density were allowed to grow to confluence overnight. The Essen Bioscience WoundMaker^TM, an accessory for the IncuCyte Zoom®, was utilized to create Scratch-wounds of a standardized width (~600 μm). Cells were treated with the indicated inhibitors and imaged every 15 min for 44 h and the percentage of wound confluence was analyzed.\nFig. S10. […] MCF10A cells (a) or MDA-MB231 cells (b) were allowed to grow to confluence overnight. Wounds of a standardized width were created using the Essen Bioscience WoundMakerTM. […] Wound closure was monitored using the Essen IncuCyte Zoom live-cell microscopy incubator. Images were captured every 2 h for the duration of the experiment. Error bars represent the SEM of two biological replicates derived from technical triplicates."}, "[4]": {"system": "p21 phosphorylation at Thr145 in MCF10A cells", "experiment": "Western blot of p21 Thr145 phosphorylation", "assay_type": "cell-based, human", "conditions": "24 h", "protocol": "as §2\nas §1, with “Scientific). SDS-PAGE was performed using pre-cast 4–12% gradient gel (Bio-Rad) and submitted to electrophoresis in NuPAGE buffer (150 V for 75 min). Separated proteins at 20 μg/lane were transferred to PVDF membranes (100 V for 60 min).” for “Scientific).”"}, "[5]": {"conditions": "compound at 50 μM, CK2β-dependent peptide substrate"}}, "note": "Several values for one entry are separate records, joined by “and”; a condition that tells them apart may be missing. Identical values can stand only once. Entries after “also recorded” stand apart in the source; their conditions may differ."}
{"smiles": "COc1[nH]c2ccc(F)cc2c1C(=O)OCC1CCN(CCNS(C)(=O)=O)CC1", "note": "[Compound 1]", "values": [{"measurement": "inhibition of CK2β-dependent phosphorylation upon addition of Triton X-100", "setting": "CK2α2β2 holoenzyme; 0.01% vol/vol Triton X-100, 50 μM compound", "value": "not affected"}, {"measurement": "inhibition at 50 µM", "setting": "CK2α2β2 holoenzyme; [5]", "value": 48, "unit": "%"}, {"measurement": "reversibility of inhibition", "setting": "CK2α2β2 holoenzyme; dilution of the reaction mixture or gel filtration", "value": "reversed"}, {"measurement": "IC50", "setting": "CK2α2β2 holoenzyme", "value": "~50 µM and 50 µM"}]}
{"smiles": "CS(=O)(=O)NCCN1CCC(COC(=O)c2c[nH]c3ccccc23)CC1", "note": "[Compound 3, (1-(2-(Methylsulfonamido)ethyl)piperidin-4-yl)methyl 1H-indole-3-carboxylate]", "values": [{"measurement": "Akt phosphorylation at Ser129", "setting": "[1]; 100 µM", "value": "slight but not statistically significant alteration"}, {"measurement": "cell death", "setting": "MDA-MB231 cells [2]; MDA-MB231, 40 μM", "value": "without effect"}, {"measurement": "cell migration / wound closure", "setting": "MDA-MB231 cells [3]", "value": "not affected"}, {"measurement": "inhibition at 50 µM", "setting": "CK2α2β2 holoenzyme; [5]", "value": 28, "unit": "%"}, {"measurement": "p21 phosphorylation", "setting": "[4]; 100 μM", "value": "moderate increase"}]}
{"smiles": "O=C(OCC1CCN(CCNS(=O)(=O)c2ccccc2)CC1)c1c[nH]c2ccccc12", "note": "[Compound 4, (1-(2-(Phenylsulfonamido)ethyl)piperidin-4-yl)methyl 1H-indole-3-carboxylate]", "values": [{"measurement": "effect of pan-caspase inhibitor Z-VAD on compound-induced cell death", "setting": "MDA-MB231 cells [2]", "value": "not significantly affected"}, {"measurement": "time to retraction of membrane extension by the majority of cells", "setting": "MDA-MB231 cells [2]; MDA-MB231, 40 μM", "value": 9, "unit": "h"}, {"measurement": "concentration at which cell death was already detectable", "setting": "MDA-MB231 cells [2]; MDA-MB231, 30 h", "value": 20, "unit": "µM"}, {"measurement": "cell death", "setting": "MDA-MB231 cells [2]; MDA-MB231, 30 h, 80 μM", "value": "massive"}, {"measurement": "inhibition at 50 µM", "setting": "CK2α2β2 holoenzyme; [5]", "value": 57, "unit": "%"}, {"measurement": "IC50", "setting": "CK2α2β2 holoenzyme", "value": 45, "unit": "µM"}]}
{"smiles": "COc1[nH]c2ccc(F)cc2c1C(=O)OCC1CCN(CCNS(=O)(=O)c2ccccc2)CC1.Cl", "note": "[Compound 6]", "values": [{"measurement": "Akt phosphorylation at Ser129", "setting": "[1]; 30 µM", "value": "slight but not statistically significant alteration"}, {"measurement": "effect of pan-caspase inhibitor Z-VAD on compound-induced cell death", "setting": "MDA-MB231 cells [2]", "value": "significantly affected; also recorded: significantly attenuated"}, {"measurement": "sensitivity of MDA-MB231 cells to compound-mediated cell death compared with MCF10A cells", "setting": "MDA-MB231 cells [2]; 80 μM, 24 h", "value": "much more sensitive"}, {"measurement": "time to retraction of membrane extension by the majority of cells", "setting": "MDA-MB231 cells [2]; MDA-MB231, 40 μM", "value": 9, "unit": "h"}, {"measurement": "concentration at which cell death was already detectable", "setting": "MDA-MB231 cells [2]; MDA-MB231, 30 h", "value": 20, "unit": "µM"}, {"measurement": "cell death", "setting": "MDA-MB231 cells [2]; MDA-MB231, 30 h, 80 μM", "value": "massive"}, {"measurement": "cell migration / wound closure", "setting": "MDA-MB231 cells [3]", "value": "completely abrogated"}, {"measurement": "Inhibition % at 50 μM", "setting": "CK2α2β2 holoenzyme; [5]", "value": 80, "unit": "%"}, {"measurement": "concentration at which p21 Thr145 phosphorylation reaches the maximum", "setting": "[4]", "value": 20, "unit": "µM"}, {"measurement": "p21 Thr145 phosphorylation", "setting": "[4]; increasing concentrations", "value": "striking dose-dependent increase"}]}
